The text below walks through data of PMC7809101, “Fetal bovine serum albumin inhibits antimicrobial peptide activity and binds drug only in complex with α1-antitrypsin” (Scientific Reports, 2021).

In one series the test system is bovine serum albumin. Also noted: method as in PMID 24456893, PMID 18779351, PMID 17569519. As to conditions: ref [12],[16],[17]; cited from earlier work. The protocol:
(§1) Albumin is the most abundant protein in human serum (HSA, 45 mg/ml), followed in descending order by α1-antitrypsin (A1AT, 3.5 mg/ml), transferrin (2.5 mg/ml), α2-macroglobulin (2.5 mg/ml), haptoglobulin (1.8 mg/ml), low-density lipoprotein (LDL, 1.2 mg/ml), α1-acid glycoprotein (AGP, 0.8 mg/ml) and high-density lipoprotein (HDL, 0.6 mg/ml)[11]. These proteins are involved in the transportation of fatty acids, cholesterols, toxins and drugs in the blood stream.

The next series has as its system human serum albumin. Conditions: cited from earlier work.
Series [1] deals with T1, protein D (albumin and α1-antitrypsin complex) (Bos taurus, UniProt P02769+P34955).
T1 construct: The active components were further purified by fast performance liquid chromatography (FPLC) Mono Q and S12 column chromatography from the 70% saturated fraction; from tissue; host or cells: fetal bovine serum (70% ammonium sulfate fraction, FPLC Mono Q and Superose 12)
The series can be described thus: Fluorescence emission spectrum (blue shift), protein D. The class given is binding, bovine. As to conditions: protein D 0.75 μM, PC buffer, 25 °C, 30 min; excitation 285 nm, emission 300–450 nm; reagent up to: sarkosyl 320, TP4-A12I,A15I 120, ibuprofen 24, phenytoin 20 μM. The protocol: (§2) The mixtures were excited by 285 nm and its emission spectra were recorded between 300 and 450 nm using a temperature-controlled fluorimeter (FP8500, Jasco, Japan)[13].

The next series concerns the target protein A (albumin) (Bos taurus, UniProt P02769). The series can be described thus: Fluorescence emission spectrum (blue shift), protein A. The class given is binding, bovine. Details: The homogeneities of collected protein A (albumin), protein B (α1-antitrypsin), protein C (serotransferrin) and protein D complex; from tissue; host or cells: fetal bovine serum (70% ammonium sulfate fraction, FPLC Mono Q). As to conditions: protein A 0.75 μM, PC buffer, 25 °C, 30 min; excitation 285 nm, emission 300–450 nm; reagent up to: sarkosyl 320, TP4-A12I,A15I 120, ibuprofen 24, phenytoin 20 μM. The method, then:
as §2

Series [2] addresses T2, protein B (α1-antitrypsin) (Bos taurus, UniProt P34955).
T2 sequence (P34955 25-416): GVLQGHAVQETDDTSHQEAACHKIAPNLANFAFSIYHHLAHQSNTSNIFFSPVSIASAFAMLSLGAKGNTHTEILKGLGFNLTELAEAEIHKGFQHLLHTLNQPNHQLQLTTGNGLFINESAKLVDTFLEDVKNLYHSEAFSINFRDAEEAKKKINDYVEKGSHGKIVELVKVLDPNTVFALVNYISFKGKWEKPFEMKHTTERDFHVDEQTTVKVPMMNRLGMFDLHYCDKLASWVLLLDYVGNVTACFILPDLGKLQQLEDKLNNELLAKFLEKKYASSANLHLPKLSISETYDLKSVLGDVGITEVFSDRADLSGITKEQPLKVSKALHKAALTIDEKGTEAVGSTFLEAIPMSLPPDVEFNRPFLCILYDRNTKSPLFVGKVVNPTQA
The series can be described thus: Band shift of AMPs by protein B. Type of series: binding, bovine. Details: The homogeneities of collected protein A (albumin), protein B (α1-antitrypsin), protein C (serotransferrin) and protein D complex; from tissue; host or cells: fetal bovine serum (70% ammonium sulfate fraction, FPLC Mono Q). Conditions: AMP 4 μg; protein 10 μg (Suppl. Fig. 3a); PC buffer, room temperature, 30 min; 8% horizontal native PAGE. The protocol:
(§3) Various AMPs (4 μg each) were incubated with fetal bovine serum (FBS) components at room temperature in 10 μl PC buffer for 30 min and subjected to horizontal native 8% PAGE, pH8.0 or pH8.8, and Coomassie Blue staining.

Series [3] has as its system Escherichia coli K-12 (MG1655). The series can be described thus: Antimicrobial (bactericidal) activity against E. coli, effect of serum or serum proteins. As to conditions: 5% (v/v) FBS in PBS, 37 °C; remaining viable cells (cfu). The class given is cell-based. The method, then: The Gram-negative bacteria Escherichia coli K-12 (MG1655) was cultured and plated in/on Luria–Bertani broth/agar plate (Merck Millipore, Darmstadt, Germany). The Gram-positive Staphylococcus aureus (ATCC 6538P) was cultured and plated in tryptic soy broth/agar (BD, MD, USA). The fungus Candida albicans (ATCC 14,053) was cultured and plated in YM broth/agar (BD, MD, USA). The bacteria were grown overnight, washed, and diluted 1:2000 in phosphate buffered saline (PBS), pH 7.5 or DMEM (Life Biotech, California, USA), pH 7.4. Bacteria (ca. 1 × 10^6 colony-forming units, cfu) were mixed with antimicrobial peptides (AMP) in 100 μl PBS and incubated at 37 °C (for bacteria) and at 30 °C (for fungus). Serial dilutions of each AMP-treated bacteria in PBS/DMEM supplemented with FBS were prepared and plated for the determination of remaining viable cells (expressed as cfu). At least three independent experiments were performed for each assay to determine the average value with standard deviation. MBC was defined as the lowest AMP concentration that kills 99.9% of the original inoculum.

Another series relates to fetal bovine serum (FBS). The series can be described thus: Band shift of AMPs by fetal bovine serum. Conditions: 10–40% FBS; AMP 4 μg; PC buffer, room temperature, 30 min; horizontal native 8% PAGE. The class given is binding. The method, then:
as §3

For series [4], the target named is T1, protein D (albumin and α1-antitrypsin complex). Description: Band shift of AMPs by protein D. Type of series: binding, bovine. Conditions: AMP 4 μg; protein 10 μg (Suppl. Fig. 3a); PC buffer, room temperature, 30 min; 8% horizontal native PAGE.
The next series deals with human serum components. Conditions: cited from earlier work. The protocol: as §1
The subject of the next series is trypsin. Description: Antitrypsin activity analysis. As to conditions: trypsin 2 ng (0.2 μg/ml) pre-incubated 30 min, PC buffer, 37 °C, 15% reduced SDS-PAGE; for inhibition of proteolytic activity of trypsin toward SAAP159: substrate SAAP159 4 μg (0.4 mg/ml); for inhibition of proteolytic activity of trypsin toward TP4: substrate TP4 2 μg (0.2 mg/ml). Type of series: biochemical. The protocol:
The inhibitions of trypsin’s proteolytic activity by serum components on peptides TP4 and SAAP159 were determined as follows. Freshly diluted trypsin (2 ng; 0.2 μg/ml) was pre-incubated with various concentrations of serum components in PC buffer for 30 min before the mixture was added to TP4 (2 μg; 0.2 mg/ml) or SAAP159 (4 μg/; 0.4 mg/ml) peptides in 10 μl PC buffer at 37 °C for 30 min. The digested peptide fragments were analyzed by 15% reduced SDS-PAGE and Coomassie Blue staining.

In series [5] the target is biotinylated TP4-A12I,A15I (tilapia). The series can be described thus: BLI; Octet RED384; biotinylated TP4-A12I,A15I (10 μM) immobilised on a Streptavidin biosensor; serial dilutions of serum components in PC buffer as analyte; global fit (1:1).

T1 sequence (P02769 25-607, one chain of several): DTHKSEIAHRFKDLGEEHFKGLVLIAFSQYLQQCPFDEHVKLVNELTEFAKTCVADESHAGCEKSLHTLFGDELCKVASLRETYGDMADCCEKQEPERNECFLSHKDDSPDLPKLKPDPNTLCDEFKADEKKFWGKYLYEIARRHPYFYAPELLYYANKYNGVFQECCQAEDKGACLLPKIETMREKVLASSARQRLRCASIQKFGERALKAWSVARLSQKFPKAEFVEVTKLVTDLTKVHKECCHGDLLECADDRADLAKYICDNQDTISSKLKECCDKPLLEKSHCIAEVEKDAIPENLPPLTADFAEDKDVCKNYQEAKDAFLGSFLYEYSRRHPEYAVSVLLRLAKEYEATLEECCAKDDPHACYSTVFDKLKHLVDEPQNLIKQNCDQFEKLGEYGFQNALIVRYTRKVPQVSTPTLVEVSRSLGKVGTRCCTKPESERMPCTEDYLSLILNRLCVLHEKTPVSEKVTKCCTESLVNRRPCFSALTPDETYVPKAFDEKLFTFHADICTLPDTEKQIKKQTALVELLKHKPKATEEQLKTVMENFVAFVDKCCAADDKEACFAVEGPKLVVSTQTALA
Chain of protein A (albumin) (P02769 25-607): as the sequence (P02769 25-607, one chain of several) above

`CO/N=C(\C(=O)N[C@@H]1C(=O)N2C(C(=O)O)=C(CSc3nc(=O)c(=O)[nH]n3C)CS[C@H]12)c1csc(N)n1` [ceftriaxone]: the “bound and inhibited by bovine serum albumin” value in the series on bovine serum albumin is “bound and inhibited”. Moreover, the “bound and inhibited by human serum albumin” value in the series on human serum albumin (ref [12],[16],[17]) was “bound and inhibited”.
For the molecule `COc1c(N2C[C@@H]3CCCN[C@@H]3C2)c(F)cc2c(=O)c(C(=O)O)cn(C3CC3)c12` [moxifloxacin], the “bound and inhibited by bovine serum albumin” value in the series with bovine serum albumin is “bound and inhibited”.
In the case of `CCCCCCCCCCCC(=O)N(C)CC(=O)[O-].[Na+]` [sarkosyl], in [1], the “blue shift of fluorescence emission spectrum, protein D” value is “caused blue shifts”. The “blue shift of fluorescence emission spectrum, protein A” value on protein A (albumin) is on record as “caused blue shifts”.
`CC(=O)CC(c1ccccc1)c1c(O)c2ccccc2oc1=O` (stereo not drawn) [warfarin]: the “bound to site I of human albumin” value with human serum albumin (site I, ref [8]–[10]) was “More than 90%”.
Turning to Iseganan [reference compound], in series [2], the “binding to protein B (band shift)” value is “not by protein A and protein B”. For the same molecule, the “effect of FBS on antimicrobial activity against E. coli” value in series [3] is reported as “serum-mediated repression”. In addition, the “mobility of AMP in band shift assay with FBS” value in the series on fetal bovine serum (FBS) is “retarded”. For the same molecule, in series [4], the “binding to protein D (band shift)” value is recorded as “also bound by protein D”.
Turning to Polymyxin B, in series [3], the “effect of FBS on antimicrobial activity against E. coli” value was “not”.
For the molecule daptomycin, in the series with human serum components, the “bound to human serum components” value is recorded as 90-94% and the “order of binding to human serum components” value is “albumin > > α1-antitrypsin > low-density lipoprotein > high-density lipoprotein > transferrin”. The “bound by human serum albumin” value in the series with human serum albumin is given as 90-94%.
For the molecule “protein A: bovine serum albumin, free form, purified from fetal bovine serum”, in the series on trypsin, the “inhibition of proteolytic activity of trypsin toward SAAP159” value (“inhibition … of trypsin toward SAAP159” below) was “only minimally affected” and the “inhibition of proteolytic activity of trypsin toward TP4” value (from here on “inhibition … of trypsin toward TP4”) is listed as “only minimally affected”.
In the case of “protein D complex (albumin and α1-antitrypsin) (from UniProt P02769 25-607; P34955 25-416)”, the Kd (as a rule, the constant that tells how readily two partners part at equilibrium) in series [5] amounted to 21.7 nM.
On to “protein D: albumin and α1-antitrypsin complex linked by disulfide bond, from fetal bovine serum”, for which, in the series on trypsin, the “inhibition … of trypsin toward SAAP159” value is recorded as “repressed” and the “inhibition … of trypsin toward TP4” value was “repressed”.

B1: protein B: bovine α1-antitrypsin, free form, purified from fetal bovine serum (protein)
chain: GVLQGHAVQETDDTSHQEAACHKIAPNLANFAFSIYHHLAHQSNTSNIFFSPVSIASAFAMLSLGAKGNTHTEILKGLGFNLTELAEAEIHKGFQHLLHTLNQPNHQLQLTTGNGLFINESAKLVDTFLEDVKNLYHSEAFSINFRDAEEAKKKINDYVEKGSHGKIVELVKVLDPNTVFALVNYISFKGKWEKPFEMKHTTERDFHVDEQTTVKVPMMNRLGMFDLHYCDKLASWVLLLDYVGNVTACFILPDLGKLQQLEDKLNNELLAKFLEKKYASSANLHLPKLSISETYDLKSVLGDVGITEVFSDRADLSGITKEQPLKVSKALHKAALTIDEKGTEAVGSTFLEAIPMSLPPDVEFNRPFLCILYDRNTKSPLFVGKVVNPTQA
For the molecule B1, in the series with trypsin, the “inhibition … of trypsin toward SAAP159” value is reported as “repressed” and the “inhibition … of trypsin toward TP4” value is given as “repressed”.
